How the values were obtained:
[1] = system: opossum internal anal sphincter muscle; conditions: cited from earlier work
guinea pigs = conditions: nebulizer treatment, allergic asthma model; cited from earlier work
[2] = system: rabbit and human penile corpus cavernosum; conditions: cited from earlier work
live male rabbits = conditions: cited from earlier work
[3] = system: corpus cavernosum of the diabetic person; conditions: ex vivo; cited from earlier work
live female rabbits = conditions: cited from earlier work
[4] = system: experimental autoimmune encephalomyelitis; conditions: cited from earlier work
Arginase = molecular target: T1, Arginase (Homo sapiens, UniProt P05089); assay: Arginase Thioornithine Generating Assay (TOGA); assay type: biochemical; conditions: for Percent Inhibition at Top Dose: Top Dose 10000 nM; for IC50: recombinant arginase 1.88 nM, thioarginine substrate
T1 construct: Arginase protein was recombinantly expressed in Escherichia coli
T1 sequence (P05089 1-322): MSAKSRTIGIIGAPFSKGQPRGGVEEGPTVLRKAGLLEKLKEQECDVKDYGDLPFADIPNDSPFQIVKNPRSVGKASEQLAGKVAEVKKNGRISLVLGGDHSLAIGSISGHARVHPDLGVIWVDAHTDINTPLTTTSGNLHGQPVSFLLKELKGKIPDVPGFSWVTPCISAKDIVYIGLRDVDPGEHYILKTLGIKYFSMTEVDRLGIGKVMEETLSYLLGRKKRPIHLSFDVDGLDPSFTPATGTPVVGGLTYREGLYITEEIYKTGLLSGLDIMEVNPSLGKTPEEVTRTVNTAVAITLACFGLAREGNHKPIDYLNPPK
Description: Arginase Thioornithine Generating Assay (TOGA)
Compounds were serially diluted in ten 3-fold steps in DMSO starting from 10 mM DMSO stocks. Compound dilutions or DMSO alone were then dispensed from the dilution plate into a Greiner black 384-well assay plate (catalog #781086) using an Echo 555 acoustic liquid handler (Labcyte).
Arginase protein was recombinantly expressed in Escherichia coli. Purified protein was then diluted in assay buffer (50 mM Tris pH 7.5, 50 mM NaCl, 1 mM manganese chloride, 0.05% bovine serum albumin to obtain a final Arginase concentration of 1.88 nM. Arginase solution (20 μL) or buffer alone (20 μL) were dispensed to wells of the assay plate using a BioRAPTR liquid dispenser (Beckman Coulter). Assay plates containing compound and arginase enzyme were incubated at room temperature for 30 minutes. Afterwards, 5 μL of 2.5 mM thioarginine (Cayman Chemicals) in assay buffer were added to each well of the assay plate using a BioRAPTR liquid dispenser. Plates were incubated at room temperature for 60 minutes and reactions were quenched by addition of 15 μL of 200 uM 7-Diethylamine-3-(4-maleimidophenyl)-4-methylcoumarin (Sigma Chemical) in 70% ethanol. Plates were briefly shaken to mix and the fluorescence was measured in an Spectramax plate reader (Molecular Devices) with a 410 nm excitation wavelength and an 490 nm emission wavelength.
Potencies were calculated by […] to the four parameter logistic IC50 equation.

For `N[C@@H](CCCCB(O)O)C(=O)O` [ABH, (S)-2-amino-6-boronohexanoic acid], the “relaxation of internal anal sphincter muscle” value [1] is given as “relax this muscle”, the airway hyperresponsiveness (guinea pigs) is given as “prevents airway hyperresponsiveness” and the “nitric oxide-dependent relaxation of corpus cavernosum” value [2] is given as “enhances the nitric oxide-dependent relaxation of this tissue”. The erectile response (live male rabbits) was “enhances the erectile response”, the nitric oxide biosynthesis [3] was “restores nitric oxide biosynthesis” and the “engorgement response in the genitalia” value (live female rabbits) was “enhances the engorgement response”. The disease score [4] was “improves the disease score of animals”.

In the case of “(1S,2S,3aS,5R,6R,6aR)-2-amino-1-(3-boronopropyl)-6-fluoro-5-hydroxyoctahydropentalene-2-carboxylate [Example 52b]”, the “Percent Inhibition at Top Dose” value (Arginase) is reported as 99.46% and the IC50 (Arginase) is reported as 37 nM.

For “(1S,2S,3aS,5S,6R,6aR)-2-amino-1-(3-boronopropyl)-6-fluoro-5-hydroxyoctahydropentalene-2-carboxylate [Example 52a]”, the “Percent Inhibition at Top Dose” value (Arginase) was 96.25% and the IC50 (Arginase) was 220 nM.
